# Patent US8591908B2, “Immunogen for preparation of therapeutic vaccines or drugs for treatment of hepatitis B and the producing method and use thereof” (Institute of Immunology, PLA, priority 2002, dated 2013)
# Ends that are not written are not given here. * marks the point of attachment. Palmitoyl = CCCCCCCCCCCCCCCC(=O)*; Lauroyl = CCCCCCCCCCCC(=O)*
# Assays:
# [1] = test system: PBMCs from acute hepatitis B patient in convalescent phase; experiment: Proliferation of lymphocytes in PBMC of acute hepatitis B patient, 3H-TdR; format: cell-based, human; details: 0.1 μg, 1 μg and 10 μg/ml with IL-2
# Experimental: Anticoagulant peripheral blood was collected aseptically from acute hepatitis B patient in convalescent phase, PBMCs were isolated by conventional Ficoll-Hypaque density gradient centrifugation and were cultured in RPMI1640 cultural media (containing 10% calf serum, 100 u/ml penicillin-streptomycin, L-glutamine) in vitro on 24-well cell culture plate at a concentration of 10^6/ml. Blank control group, test group, and Pre-S (2) control group were included. IL-2 (30 IU/ml) and test drug (0.1 μg/ml, 1 μg/ml, 10 μg/ml) were separately added into the wells. After the cells were cultured for 6 days, IL-2 and the test drug were added at the same doses to stimulate the cells again. Then 3H-TdR (1 uCi/ml) was added and further cultured for 18 hours. The cells were collected and tested by liquid scintillation.
# HLA-A2+ human PBMC = experiment: FIG. 4: IFN-γ secreting CTL cells, ELISPOT; format: cell-based; details: 24 h after last stimulation
# Experimental: (§1) FIG. 4 indicated the effect of inducing cytotoxicity. […] Three days after the last stimulation, antigen-specific effector CTL cells were obtained, and their cytotoxic activities were measured by the standard ^51Cr release test and compared. […] Twenty-four hours after the last stimulation to HLA-A2+ human PBMC, the effects of the test drug to induce the proliferating INF-γ secreting CTL cells in peripheral blood lymphocytes were measured in the ELISPOT method and compared.
# [2] = test system: 2215, E6 and T2 target cells; experiment: FIG. 4: induced CTL cytotoxicity, 51Cr release test; format: cell-based, human; details: 10 ng test drug; E/T 12.5, 25, 50, 100
# Experimental: as §1
# [3] = test system: PBMCs from hepatitis B patient; experiment: Lymphocyte activation (Th1/Th2) of PBMCs from hepatitis B patient; format: cell-based, human; details: IL-4, IL-10, IFN-γ in culture supernatants, acute and chronic hepatitis
# Source text: Acute and chronic hepatitis blank control groups, acute hepatitis+/test drug group and chronic hepatitis+/test drug group were included to test the Th1/Th2 activation by Endogen kit or EELISPOT method.
# Balb/c mice = experiment: ELISPOT test of induced cytotoxicity in immunized mice; format: in vivo; details: IFN-γ ELISPOT of PBMC
# Source text: Balb/c mice of 2-3 Months old (both male and female) were divided into 8 groups, and were immunized with the present compound at both postpede palmas once a week for three times at different doses: 0.001 nmol, 0.01 nmol, 0.1 nmol, 0.5 nmol, 1 nmol, 10 nmol, 20 nmol, and 40 nmol respectively. Bloods were taken postorbitally from mice under sterile conditions on the 6th, 12th, 18th and 24th day after the end of immunization respectively and were anticoagulatant-treated. PBMCs were isolated by Ficoll-Hypaque method, and were cultured in RPMI1640 culture media (containing 10% calf serum, and 100μ/ml penicillin-streptomycin) (10^6/ml, 96-well culture plate) in vitro for one day. After they returned to the original growth state, they were used as test cells. ELISPOT 96-well cell culture plate was pre-coated with IFN-γ coating antibody overnight, each well was treated in triplicate. The wells were blocked with RPMI1640 containing 5% calf serum at room temperature for 1 hour. After drying in air, test cells were added (5×10^4 cells/100 μl/well, containing RPMI1640 media, 10% calf serum, 100μ/ml myciline, and 1 μg/ml peptide), wherein the PBMC of mice immunized with melan A27-35 peptide were set as negative control. […] Then the plate was washed again and dried in air, the substrate was added for visualization and the number of spots was counted.
substance,measurement,setting,value
CH3(CH2)14COKSSQYIKANSKFIGITEAAALLCLIFLLVGGGDPRVRGLYFPA (Palmitoyl-KSSQYIKANSKFIGITEAAALLCLIFLLVGGGDPRVRGLYFPA) [SEQ ID NO:51],proliferation of PBMCs,[1],stimulated the proliferation of PBMCs from acute hepatitis B patient in convalescent phase in a manner of dose dependence
"CH3(CH2)7CH═CH(CH2)—CO, CH3CH2CH═CHCH2CH═CH(CH2)7CO7KSSQYIKANSKFIGITEGGGDPRVRGLYFPA (not fully specified (N-terminus); printed as CH3(CH2)7CH═CH(CH2)—CO, CH3CH2CH═CHCH2CH═CH(CH2)7CO7KSSQYIKANSKFIGITEGGGDPRVRGLYFPA) [SEQ ID NO:3]",proliferation of IFN-γ secreting cells,HLA-A2+ human PBMC,induce the proliferation of IFN-γ secreting cells in human PBMC in a notable dose-effect dependence relation
same,"CTL effect, lysis of target cells",[2],"induce the CTL effect in human PBMC, and specifically lyzed and destroyed target cells"
CH3(CH2)10COKSSPADREGGGSLNFLGGTTVSSSDPRVRGLYFPA (Lauroyl-KSSPADREGGGSLNFLGGTTVSSSDPRVRGLYFPA) [SEQ ID NO:50],conversion of T-lymphocytes into Th1/Th2 type,[3],"induce the conversion of T-lymphocytes into both Th1 and Th2 types, with the conversion into Th1 type the most obvious"
CH3(CH2)14COKSSPADREAAAFLPSDFFPSVGGGDPRVRGLYFPA (Palmitoyl-KSSPADREAAAFLPSDFFPSVGGGDPRVRGLYFPA) [SEQ ID NO:56],minimum effective dose,Balb/c mice,0.01 nmol
